# Assay results as given in PMC7998669, “7-(2-Anilinopyrimidin-4-yl)-1-benzazepin-2-ones Designed by a “Cut and Glue” Strategy Are Dual Aurora A/VEGF-R Kinase Inhibitors” (Molecules, 2021).
# Legend:
# Assay in all cases: radiometric 33PanQinase protein kinase assay
# Format in all cases: biochemical
# Conditions in all cases: for IC50: radiometric assay, 1 µM ATP; for remaining activity at 10 µM: 10 µM compound, residual kinase activity
# [1] = molecular target: T1, Aurora-A (Homo sapiens, UniProt O14965)
# T1 construct: host or cells: Sf9 (baculovirus)
# T1 sequence (O14965 1-403): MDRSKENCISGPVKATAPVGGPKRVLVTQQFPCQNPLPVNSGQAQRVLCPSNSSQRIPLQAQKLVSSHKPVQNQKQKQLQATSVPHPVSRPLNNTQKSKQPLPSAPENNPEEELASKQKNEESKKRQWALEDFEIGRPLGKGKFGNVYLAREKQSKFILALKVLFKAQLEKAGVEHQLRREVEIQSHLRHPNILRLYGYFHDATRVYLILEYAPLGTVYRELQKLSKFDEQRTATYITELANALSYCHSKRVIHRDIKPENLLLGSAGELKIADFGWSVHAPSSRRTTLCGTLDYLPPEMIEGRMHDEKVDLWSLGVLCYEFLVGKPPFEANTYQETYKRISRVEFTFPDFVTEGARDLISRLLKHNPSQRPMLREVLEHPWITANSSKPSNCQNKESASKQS
# Protocol: (§1) The inhibitory activity of prototype 2a was determined in a panel of 24 tumor-relevant protein kinases using a radiometric assay. Only the kinases Aurora A, VEGF-R2 and VEGF-R3 were inhibited with single digit micromolar IC50 values (Table 2). Structural modifications were then implemented, particularly directed to improve inhibition of Aurora A. The so-designed congeners with small substituents at the aniline ring 2b–2n were examined for inhibition of Aurora A and of VEGF-R2, VEGF-R3 and Aurora B for comparison (Table 3).
# (§2) The screening for protein kinase inhibition was performed with the radiometric ^33Panqinase activity assay at Reaction Biology Europe GmbH (Freiburg) using a robotic system (Beckmann Coulter/SagianRoboter) and 96-well plates (FlashPlates, Perkin/Elmer/NEN, Boston, MA, USA). In brief, the transfer of ^33P-phosphate into the substrate was measured with a microplate scintillation counter (Microbeta Trilux, Wallace). Protein kinases were expressed in Sf9 cells as recombinant glutathione S-transferase (GST) or polyhistidine (His)-tagged proteins in baculovirus. Isolation and purification of expressed kinases were performed with affinity chromatography by using GSH agarose (Sigma) or Ni-NTA agarose (Qiagen). The standard solution for each enzyme contained: 60 mM HEPES-NaOH (pH 7.5), 3 mM MgCl2, 3 µM sodium orthovanadate, 1.2 mM DTT, 50 µg/mL PEG20000 and 1 µM [γ-^33P]-ATP (approximately 5 × 10^5 cpm per well). In chronological order the reaction mixture was prepared: 20 µL standard solution, 5 µL ATP solution in water, 5 µL of the compound in 10% DMSO and 20 µL of enzyme/substrate mixture (50:50). Each kinase contained different substrates in different concentrations: 125 ng/50 µL Poly(Glu, Tyr)4:1 for 20 ng/50 µL IGF1-R, 25 ng/50 µL IGF1-R, 20 ng/50 µL EGF-R, 25 ng/50 µL EGF-R, 40 ng/50 µL EGF-R, 10 ng/50 µL EPHB4, 20 ng/50 µL EPHB4, 200 ng/50 µL ERBB2, 10 ng/50 µL SRC, 100 ng/50 µL FAK, 200 ng/50 µL FAK, 50 ng/50 µL VEGF-R2, 100 ng/50 µL VEGF-R3, 200 ng/50 µLTIE2; 250 ng/50 µL Poly(Glu, Tyr)4:1 for 200 ng/50 µL TIE2; 500 ng/50 µL tetra (LRRWSLG) for 50 ng/50 µL Aurora-A, 25 ng/50 µL PAK4, 25 ng/50 µL PDK1; 250 ng/50 µL tetra (LRRWSLG) for 50 ng/50 µL Aurora-B, 200 ng/50 µL Aurora-B; 125 ng/50 µL Histon H1 for 100 ng/50 µL CDK2/CycA; 250 ng/50 µL Rb-CTF for 50 ng/50 µL CDK/CycD1; 500 ng/50 µL Rb-CTF for 50 ng/50 µL CDK4/CycD1; 125 ng/50 µL Poly(ala, Glu, Lys, Tyr)6:2:5:1 for 25 ng/50 µL INS-R, 50 ng/50 µL PDGFR-beta, 100 ng/50 µL PDGFR-beta, 100 ng/50 µL FLT3, 150 ng/50 µL FLT3, 20 ng/50 µL MET, 50 ng/50 µL MET, 100 ng/50 µL MET; 250 ng/50 µL Casein for 200 ng/50 µL CK2-alpha1, 200 ng/50 µL PLK1; 1000 ng/50 µL Casein for 200 ng/50 µL PLK1, 200 ng/50 µL CK2-alpha1; 1000 ng/50 µLGSK3 (14–27) for 100 ng/50 µL AKT1; 125 ng/50 µL p53-CTM for 150 ng/50 µL CK2-alpha1, 200 ng/50 µLCK2-alpha1; 250 ng/50 µL MEK-KM for 20 ng/50 µL B-RAF-VE; autophosphorylation at ARK5, COT and SAK. After incubation (80 min, 30 °C) the reaction was stopped by adding 50 µL 2% (v/v) phosphoric acid to the reaction mixture. The microplate was washed twice with 200 µL 0.9% (v/v) saturated sodium chloride or water. The measured radioactivity, conditioned by the incorporation of [γ-^33P]-phosphate, is proportional to kinase activity. Furthermore, low control and high control were measured to determine the residual activity (%). As low controls, mixtures with substrate, but without enzyme were used to determine the unspecific binding of [γ-^33P]-phosphate to the well plate. Mixtures with enzyme, but without inhibitor were used as high controls to determine maximum enzyme activity. The IC50-values of the distinct compounds were calculated with Quattro Workflow V1.1.0.8 (Quattro Research GmbH, München, Germany). Dose response curves were generated by measurement of the residual activity of ten different inhibitor concentrations (0.1 mM, 30.0 µM, 10 µM, 3.0 µM, 1.0 µM, 0.3 µM, 0.1 µM, 30.0 nM, 10.0 nM and 3.0 nM). […]
# [2] = molecular target: T2, Aurora-B (Homo sapiens, UniProt Q96GD4)
# T2 construct: host or cells: Sf9 (baculovirus)
# Protocol: as §1, §2
# [3] = molecular target: T3, VEGF-R2 (Homo sapiens, UniProt P35968)
# T3 construct: host or cells: Sf9 (baculovirus)
# Protocol: as §1, §2
# [4] = molecular target: T4, VEGF-R3 (Homo sapiens, UniProt P35916)
# T4 construct: host or cells: Sf9 (baculovirus)
# Protocol: as §1, §2
# T4 sequence (P35916 25-1363): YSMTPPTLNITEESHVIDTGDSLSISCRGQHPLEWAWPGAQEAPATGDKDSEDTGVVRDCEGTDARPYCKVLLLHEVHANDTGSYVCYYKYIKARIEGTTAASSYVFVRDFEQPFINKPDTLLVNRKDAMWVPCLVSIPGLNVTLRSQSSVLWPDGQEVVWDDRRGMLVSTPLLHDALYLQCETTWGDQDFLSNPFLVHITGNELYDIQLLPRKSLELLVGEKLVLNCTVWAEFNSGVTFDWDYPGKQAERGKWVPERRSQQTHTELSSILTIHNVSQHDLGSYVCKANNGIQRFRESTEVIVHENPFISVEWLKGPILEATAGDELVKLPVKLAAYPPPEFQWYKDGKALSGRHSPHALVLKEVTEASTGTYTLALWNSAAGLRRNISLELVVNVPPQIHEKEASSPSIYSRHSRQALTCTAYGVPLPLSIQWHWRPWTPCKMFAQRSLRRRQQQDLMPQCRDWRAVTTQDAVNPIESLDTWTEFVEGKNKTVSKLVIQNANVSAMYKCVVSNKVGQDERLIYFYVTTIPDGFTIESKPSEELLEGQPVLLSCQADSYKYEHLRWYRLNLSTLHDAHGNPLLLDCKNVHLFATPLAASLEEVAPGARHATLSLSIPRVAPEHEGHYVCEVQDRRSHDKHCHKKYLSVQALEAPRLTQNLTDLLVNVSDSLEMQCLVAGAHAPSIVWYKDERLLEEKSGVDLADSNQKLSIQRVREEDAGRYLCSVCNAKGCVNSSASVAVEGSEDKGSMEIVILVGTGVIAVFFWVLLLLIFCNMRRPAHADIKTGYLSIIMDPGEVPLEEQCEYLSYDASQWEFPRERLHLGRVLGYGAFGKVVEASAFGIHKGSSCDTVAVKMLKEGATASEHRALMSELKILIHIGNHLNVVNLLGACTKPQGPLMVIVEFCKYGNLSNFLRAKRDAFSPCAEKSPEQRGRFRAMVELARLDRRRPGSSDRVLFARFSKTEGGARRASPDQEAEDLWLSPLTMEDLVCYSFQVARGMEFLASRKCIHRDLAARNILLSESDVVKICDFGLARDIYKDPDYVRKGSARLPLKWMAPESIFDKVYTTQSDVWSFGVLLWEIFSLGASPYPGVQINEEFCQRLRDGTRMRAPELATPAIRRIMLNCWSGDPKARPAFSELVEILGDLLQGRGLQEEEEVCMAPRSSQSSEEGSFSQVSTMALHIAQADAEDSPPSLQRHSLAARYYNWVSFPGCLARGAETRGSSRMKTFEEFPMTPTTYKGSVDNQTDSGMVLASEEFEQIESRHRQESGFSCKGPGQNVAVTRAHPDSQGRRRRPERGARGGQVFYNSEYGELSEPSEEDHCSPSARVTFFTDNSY
# T2 sequence (Q96GD4 whole entry): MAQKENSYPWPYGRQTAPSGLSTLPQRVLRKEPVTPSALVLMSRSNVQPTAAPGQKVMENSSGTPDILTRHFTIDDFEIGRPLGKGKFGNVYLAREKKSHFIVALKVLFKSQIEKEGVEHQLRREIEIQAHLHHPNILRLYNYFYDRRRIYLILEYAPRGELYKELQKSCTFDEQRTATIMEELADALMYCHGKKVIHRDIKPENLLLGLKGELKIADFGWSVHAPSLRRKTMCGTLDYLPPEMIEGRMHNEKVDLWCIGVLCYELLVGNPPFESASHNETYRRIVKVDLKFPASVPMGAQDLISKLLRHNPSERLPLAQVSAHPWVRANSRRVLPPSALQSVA
# T3 sequence (P35968 20-1356): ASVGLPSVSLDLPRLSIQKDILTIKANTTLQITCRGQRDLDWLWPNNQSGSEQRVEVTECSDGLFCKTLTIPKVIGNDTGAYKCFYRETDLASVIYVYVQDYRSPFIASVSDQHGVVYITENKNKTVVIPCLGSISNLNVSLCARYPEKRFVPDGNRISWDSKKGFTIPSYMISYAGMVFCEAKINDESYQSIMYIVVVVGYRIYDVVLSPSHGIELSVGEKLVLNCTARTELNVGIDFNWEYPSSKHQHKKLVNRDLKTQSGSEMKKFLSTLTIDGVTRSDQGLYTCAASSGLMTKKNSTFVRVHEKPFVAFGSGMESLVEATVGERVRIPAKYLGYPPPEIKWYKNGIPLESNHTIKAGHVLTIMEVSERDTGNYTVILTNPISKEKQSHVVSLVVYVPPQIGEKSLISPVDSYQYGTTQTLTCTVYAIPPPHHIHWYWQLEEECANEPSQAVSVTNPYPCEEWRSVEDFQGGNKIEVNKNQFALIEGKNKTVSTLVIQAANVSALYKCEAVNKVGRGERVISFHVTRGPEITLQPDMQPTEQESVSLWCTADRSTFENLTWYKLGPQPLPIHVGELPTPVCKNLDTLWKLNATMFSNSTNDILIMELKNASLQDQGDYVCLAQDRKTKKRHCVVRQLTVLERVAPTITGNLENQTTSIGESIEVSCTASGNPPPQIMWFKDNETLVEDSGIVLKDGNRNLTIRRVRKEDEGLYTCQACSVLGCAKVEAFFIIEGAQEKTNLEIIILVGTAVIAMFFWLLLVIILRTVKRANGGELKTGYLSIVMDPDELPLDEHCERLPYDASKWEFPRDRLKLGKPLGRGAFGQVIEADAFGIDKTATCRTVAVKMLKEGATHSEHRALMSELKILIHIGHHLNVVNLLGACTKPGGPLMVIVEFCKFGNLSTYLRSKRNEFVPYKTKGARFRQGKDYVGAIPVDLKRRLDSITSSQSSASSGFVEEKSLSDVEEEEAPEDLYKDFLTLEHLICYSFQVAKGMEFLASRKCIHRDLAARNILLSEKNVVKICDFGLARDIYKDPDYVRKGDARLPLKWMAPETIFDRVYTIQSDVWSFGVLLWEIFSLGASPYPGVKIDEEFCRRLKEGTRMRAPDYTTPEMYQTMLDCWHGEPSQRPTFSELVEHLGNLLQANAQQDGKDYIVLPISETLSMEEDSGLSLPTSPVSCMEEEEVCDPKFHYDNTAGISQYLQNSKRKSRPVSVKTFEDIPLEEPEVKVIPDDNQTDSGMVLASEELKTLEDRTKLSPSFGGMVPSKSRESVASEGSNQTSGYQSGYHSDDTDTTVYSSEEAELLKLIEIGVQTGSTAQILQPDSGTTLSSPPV
Compound,IC50 [1],IC50 [2],IC50 [3],IC50 [4],remaining activity at 10 µM [1],remaining activity at 10 µM [2],remaining activity at 10 µM [3],remaining activity at 10 µM [4]
"Cc1ccc(Nc2nccc(-c3ccc4c(c3)CCCC(=O)N4)n2)cc1 [Compound 2b, 7-[2-(4-Toluidino)pyrimidin-4-yl]-1,3,4,5-tetrahydro-2H-1-benzazepin-2-one]",2.4 µM,16 µM,1.8 µM,4.3 µM,,,,
"COc1ccc(Nc2nccc(-c3ccc4c(c3)CCCC(=O)N4)n2)cc1 [Compound 2c, 7-[2-(4-Methoxyanilino)pyrimidin-4-yl]-1,3,4,5-tetrahydro-2H-1-benzazepin-2-one]",1.8 µM,18 µM,1.3 µM,2.5 µM,,,,
"CCOc1ccc(Nc2nccc(-c3ccc4c(c3)CCCC(=O)N4)n2)cc1 [Compound 2d, 7-[2-(4-Ethoxyanilino)pyrimidin-4-yl]-1,3,4,5-tetrahydro-2H-1-benzazepin-2-one]",1.5 µM,20 µM,2 µM,3 µM,,,,
"O=C1CCCc2cc(-c3ccnc(Nc4ccc(Cl)cc4)n3)ccc2N1 [Compound 2f, 7-[2-(4-Chloroanilino)pyrimidin-4-yl]-1,3,4,5-tetrahydro-2H-1-benzazepin-2-one]",9.4 µM,40 µM,11 µM,19 µM,,,,
"O=C1CCCc2cc(-c3ccnc(Nc4ccc([N+](=O)[O-])cc4)n3)ccc2N1 [Compound 2i, 7-[2-(4-Nitroanilino)pyrimidin-4-yl]-1,3,4,5-tetrahydro-2H-1-benzazepin-2-one]",> 100 µM,> 100 µM,11 µM,35 µM,,,,

# Other lines, results leading:
IC50 [1],IC50 [2],IC50 [3],IC50 [4],remaining activity at 10 µM [1],remaining activity at 10 µM [2],remaining activity at 10 µM [3],remaining activity at 10 µM [4],Compound
3.5 µM,18 µM,5.4 µM,4.1 µM,,,,,"O=C1CCCc2cc(-c3ccnc(Nc4ccc(Br)cc4)n3)ccc2N1 [Compound 2g, 7-[2-(4-Bromoanilino)pyrimidin-4-yl]-1,3,4,5-tetrahydro-2H-1-benzazepin-2-one]"
3.5 µM,52 µM,17 µM,6.2 µM,,,,,"O=C1CCCc2cc(-c3ccnc(Nc4ccc(I)cc4)n3)ccc2N1 [Compound 2h, 7-[2-(4-Iodoanilino)pyrimidin-4-yl]-1,3,4,5-tetrahydro-2H-1-benzazepin-2-one]"
> 100 µM,> 100 µM,8.4 µM,19 µM,,,,,"O=C1CCCc2cc(-c3ccnc(Nc4ccccc4O)n3)ccc2N1 [Compound 2j, 7-[2-(2-Hydroxyanilino)pyrimidin-4-yl]-1,3,4,5-tetrahydro-2H-1-benzazepin-2-one]"
,,,,74%,87%,74%,72%,"O=C1CCCc2cc(-c3ccnc(Nc4ccccc4Cl)n3)ccc2N1 [Compound 2k, 7-[2-(2-Chloroanilino)pyrimidin-4-yl]-1,3,4,5-tetrahydro-2H-1-benzazepin-2-one]"
,,,,73%,116%,78%,64%,"O=C1CCCc2cc(-c3ccnc(Nc4ccccc4Br)n3)ccc2N1 [Compound 2l, 7-[2-(2-Bromoanilino)pyrimidin-4-yl]-1,3,4,5-tetrahydro-2H-1-benzazepin-2-one]"
